Data published in US8148391B2 (Cephalon, Inc., priority 2006, dated 2012).
Read-outs that look alike come from different tables or passages of the source.

Key:
[1] = target: T1, baculovirus-expressed ALK (Homo sapiens, UniProt Q9UM73); test: ALK Kinase Assay (ELISA-type, time-resolved fluorescence); format: biochemical
T1 construct: host or cells: baculovirus expression system
Method in brief: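 Substrate coating: phospholipase C-γ, 10 μg/mL in TBS. Kinase step: 30 ng/ml ALK, 15 min, 37° C. Detection and analysis: Eu-N1 PT66 antibody, with IC50 fitted as a sigmoidal variable-slope dose-response curve.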

[2] = target: T2, c-Met (cytoplasmic domain) (Homo sapiens, UniProt P08581); test: c-Met Kinase Assay (same methods as for ALK, with modifications); format: biochemical
T2 construct: 10 ng/mL c-Met (cytoplasmic domain, Invitrogen Corporation #PV3143); purchased Invitrogen Corporation PV3143
T2 sequence (P08581 956-1390 limits assumed): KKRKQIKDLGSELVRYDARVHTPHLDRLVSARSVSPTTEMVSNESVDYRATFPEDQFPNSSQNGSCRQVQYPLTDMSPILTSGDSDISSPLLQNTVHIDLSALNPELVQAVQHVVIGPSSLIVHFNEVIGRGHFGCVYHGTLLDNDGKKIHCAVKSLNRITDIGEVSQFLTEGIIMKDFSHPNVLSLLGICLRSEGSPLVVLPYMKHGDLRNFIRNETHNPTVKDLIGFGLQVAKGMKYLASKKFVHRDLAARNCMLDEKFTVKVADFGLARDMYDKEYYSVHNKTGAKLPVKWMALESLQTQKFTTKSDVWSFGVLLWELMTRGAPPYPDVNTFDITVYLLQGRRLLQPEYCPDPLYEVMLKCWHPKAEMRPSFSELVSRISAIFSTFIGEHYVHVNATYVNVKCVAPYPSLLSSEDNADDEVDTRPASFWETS
Method in brief: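 This plate-based kinase format uses immobilized phospholipase C-γ as substrate, phosphorylated by c-Met cytoplasmic domain (10 ng/mL) at 37° C for 15 minutes.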

[3] = ALK kinase inhibition, 1 μM ATP (Km level), read-out: ALK Activity
[4] = c-Met kinase inhibition, 1 μM ATP (Km level), read-out: cMet Activity
[5] = 1 μM ATP (Km level), read-out: ALK Activity (ALK Kinase Inhibition, IC50)
[6] = 1 μM ATP (Km level), read-out: cMet Activity (c-Met Kinase Inhibition, IC50)
[7] = 1 μM ATP (Km level), 30 ng/ml ALK, 37° C., 15 minutes, read-out: ALK Activity (ALK kinase inhibition, IC50 class)
[8] = 1 μM ATP (Km level), 10 ng/mL c-Met, read-out: cMet Activity (c-Met kinase inhibition, IC50 class)
[9] = ALK kinase inhibition, 1 μM ATP, read-out: ALK Activity
[10] = c-Met kinase inhibition, 1 μM ATP, read-out: cMet Activity

T1 sequence (Q9UM73 19-1620): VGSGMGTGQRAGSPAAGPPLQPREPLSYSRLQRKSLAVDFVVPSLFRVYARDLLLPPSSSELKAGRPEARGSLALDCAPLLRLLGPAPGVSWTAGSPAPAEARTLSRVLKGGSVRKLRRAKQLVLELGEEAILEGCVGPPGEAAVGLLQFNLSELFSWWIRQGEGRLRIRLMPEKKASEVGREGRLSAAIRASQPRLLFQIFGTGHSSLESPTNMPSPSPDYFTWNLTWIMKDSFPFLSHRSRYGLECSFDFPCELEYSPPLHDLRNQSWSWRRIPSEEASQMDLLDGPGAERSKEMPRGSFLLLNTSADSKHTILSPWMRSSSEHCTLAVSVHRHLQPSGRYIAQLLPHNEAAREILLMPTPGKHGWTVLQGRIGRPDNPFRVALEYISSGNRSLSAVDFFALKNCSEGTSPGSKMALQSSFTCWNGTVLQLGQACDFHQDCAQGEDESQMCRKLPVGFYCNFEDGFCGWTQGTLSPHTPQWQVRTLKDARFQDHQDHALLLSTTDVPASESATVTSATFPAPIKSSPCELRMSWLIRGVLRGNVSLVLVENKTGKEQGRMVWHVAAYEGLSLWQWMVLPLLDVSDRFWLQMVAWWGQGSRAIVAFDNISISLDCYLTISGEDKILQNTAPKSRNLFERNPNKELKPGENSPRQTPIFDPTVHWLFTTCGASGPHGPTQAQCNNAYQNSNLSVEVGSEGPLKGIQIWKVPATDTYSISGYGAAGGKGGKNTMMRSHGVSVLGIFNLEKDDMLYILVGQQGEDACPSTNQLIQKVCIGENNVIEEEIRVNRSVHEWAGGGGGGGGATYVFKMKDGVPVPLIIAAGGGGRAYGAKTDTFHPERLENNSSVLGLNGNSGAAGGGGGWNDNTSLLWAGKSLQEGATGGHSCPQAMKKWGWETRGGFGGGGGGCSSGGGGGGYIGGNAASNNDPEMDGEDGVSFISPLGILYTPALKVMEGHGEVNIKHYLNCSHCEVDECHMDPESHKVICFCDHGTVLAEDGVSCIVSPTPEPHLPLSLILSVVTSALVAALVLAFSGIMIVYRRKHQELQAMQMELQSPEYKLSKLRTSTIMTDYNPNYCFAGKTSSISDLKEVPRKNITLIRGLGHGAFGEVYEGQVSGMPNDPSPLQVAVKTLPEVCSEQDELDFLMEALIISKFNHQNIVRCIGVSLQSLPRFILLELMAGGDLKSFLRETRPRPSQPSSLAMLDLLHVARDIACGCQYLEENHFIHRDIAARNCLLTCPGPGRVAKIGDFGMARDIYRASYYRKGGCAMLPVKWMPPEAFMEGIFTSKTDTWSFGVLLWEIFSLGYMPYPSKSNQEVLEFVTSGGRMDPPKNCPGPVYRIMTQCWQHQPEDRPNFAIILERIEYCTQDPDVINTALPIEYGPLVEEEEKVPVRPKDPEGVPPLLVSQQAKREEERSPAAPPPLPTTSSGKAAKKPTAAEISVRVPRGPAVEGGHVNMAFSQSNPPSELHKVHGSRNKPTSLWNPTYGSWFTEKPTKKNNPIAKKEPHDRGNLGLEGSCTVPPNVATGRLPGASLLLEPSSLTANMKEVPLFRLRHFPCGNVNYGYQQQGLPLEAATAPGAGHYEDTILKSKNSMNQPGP

| IC50 [1, 3] | IC50 [2, 4] | IC50 [1, 7] | IC50 [2, 8] | Compound | other results |
| --- | --- | --- | --- | --- | --- |
| – | – | 100 to 1000 nM | > 10000 nM | COc1cc2c(cc1Nc1ncc(Cl)c(NC3(C(=O)NCC#N)CC3)n1)CCN(CC(=O)N(C)C)CC2 [Example 1199, 1-[5-Chloro-2-(3-dimethylcarbamoylmethyl-8-methoxy-2,3,4,5-tetrahydro-1H-benzo[d]azepin-7-ylamino)-pyrimidin-4-ylamino]-cyclopropanecarboxylic acid cyanomethyl-amide] | – |
| < 100 nM | < 100 nM | – | – | CNS(=O)(=O)c1ccccc1Nc1nc(Nc2ccc3c(c2)CCCC(=O)N3CC(=O)O)ncc1Cl [Example 9, {7-[5-Chloro-4-(2-methylsulfamoyl-phenylamino)-pyrimidin-2-ylamino]-2-oxo-2,3,4,5-tetrahydro-benzo[b]azepin-1-yl}-acetic acid] | – |
| – | – | 100 to 1000 nM | 1000 to 10000 nM | COCCN1CCc2ccc(Nc3ncc(Cl)c(Nc4ccc5[nH]c(C(F)(F)F)nc5c4)n3)cc2CC1 [Example 1015, 5-Chloro-N*2*-[3-(2-methoxy-ethyl)-2,3,4,5-tetrahydro-1H-benzo[d]azepin-7-yl]-N*4*-(2-trifluoromethyl-1H-benzoimidazol-5-yl)-pyrimidine-2,4-diamine] | – |
| – | – | < 100 nM | > 10000 nM | CCN1C(=O)[C@H](NC(=O)CN(C)C)CCc2c1ccc(Nc1ncc(Cl)c(N[C@H]3[C@@H](C(N)=O)[C@@H]4C=C[C@H]3C4)n1)c2OC (single isomer, unassigned) [Example 1354] | – |
| – | – | < 100 nM | 100 to 1000 nM | COCCN1CCc2ccc(Nc3ncc(Cl)c(Nc4ccccc4C(=O)OC)n3)cc2CC1 [Example 1408, 2-{5-Chloro-2-[3-(2-methoxy-ethyl)-2,3,4,5-tetrahydro-1H-benzo[d]azepin-7-ylamino]-pyrimidin-4-ylamino}-benzoic acid methyl ester] | – |
| – | – | < 100 nM | > 10000 nM | COc1cc2c(cc1Nc1ncc(Cl)c(N[C@H]3[C@@H](C(N)=O)[C@@H]4C=C[C@H]3C4)n1)C(C)(C)CCC(=O)N2 [Example 1312] | – |
| – | – | < 100 nM | 1000 to 10000 nM | COc1cc2c(cc1Nc1ncc(Cl)c(Nc3ccccc3S(=O)(=O)N(C)C)n1)CCN(CCS(C)(=O)=O)CC2 [Example 1152, 2-{5-Chloro-2-[3-(2-methanesulfonyl-ethyl)-8-methoxy-2,3,4,5-tetrahydro-1H-benzo[d]azepin-7-ylamino]-pyrimidin-4-ylamino}-N,N-dimethyl-benzenesulfonamide] | – |
| < 100 nM | 1000 to 10000 nM | – | – | N-(2-{5-Chloro-2-[3-methyl-5-oxo-1-(2,2,2-trifluoro-acetyl)-2,3,4,5-tetrahydro-1H-benzo[e][1,4]diazepin-6-ylamino]-pyrimidin-4-ylamino}-phenyl)-methanesulfonamide and N-(2-{5-Chloro-2-[2-methyl-5-oxo-1-(2,2,2-trifluoro-acetyl)-2,3,4,5-tetrahydro-1H-benzo[e][1,4]diazepin-6-ylamino]-pyrimidin-4-ylamino}-phenyl)-methanesulfonamide (Mixture of regioisomers) [Example 230] | – |

Second part, the compound before the results:

| Compound | IC50 [1, 3] | IC50 [2, 4] | IC50 [1, 7] | IC50 [2, 8] | other results |
| --- | --- | --- | --- | --- | --- |
| COCCN1CCc2ccc(OC)c(Nc3ncc(Cl)c(Nc4ccc(N5CCOCC5)cc4OC)n3)c2CC1 [Example 246, 5-Chloro-N(2)-[7-methoxy-3-(2-methoxy-ethyl)-2,3,4,5-tetrahydro-1H-benzo[d]azepin-6-yl]-N(4)-(2-methoxy-4-morpholin-4-yl-phenyl)-pyrimidine-2,4-diamine] | 1000 to 10000 nM | > 10000 nM | – | – | – |
| COc1ccc(Nc2nc(Nc3cc4c(cc3OC)CCN(CC(=O)N(C)C)CC4)ncc2Cl)c(N2CCOCC2)c1 [Example 829, 2-{7-[5-Chloro-4-(4-methoxy-2-morpholin-4-yl-phenylamino)-pyrimidin-2-ylamino]-8-methoxy-1,2,4,5-tetrahydro-benzo[d]azepin-3-yl}-N,N-dimethyl-acetamide] | – | – | – | – | IC50 [1, 5]: < 100 nM; IC50 [2, 6]: > 10000 nM |
| CN1C(=O)OCCc2cc(Nc3ncc(Cl)c(Nc4cccc5c4OC(F)(F)O5)n3)ccc21 [Example 1768, 2-[5-Chloro-4-(2,2-difluoro-benzo[1,3]dioxol-4-ylamino)-pyrimidin-2-ylamino]-5-methyl-8,9-dihydro-5H-7-oxa-5-aza-benzocyclohepten-6-one] | – | – | – | – | IC50 [1, 9]: 100 to 1000 nM; IC50 [2, 10]: 1000 to 10000 nM |
| Cc1cccc(C(N)=O)c1Nc1nc(Nc2ccc3c(c2)C(C)(C)CCC(=O)N3)ncc1Cl [Example 1476, 2-[5-Chloro-2-(5,5-dimethyl-2-oxo-2,3,4,5-tetrahydro-1H-benzo[b]azepin-7-ylamino)-pyrimidin-4-ylamino]-3-methyl-benzamide] | – | – | – | – | IC50 [1, 9]: 100 to 1000 nM; IC50 [2, 10]: 1000 to 10000 nM |
| COCCNC1CCc2ccc(Nc3ncc(Cl)c(N[C@@H]4CCCC[C@H]4NS(C)(=O)=O)n3)c(OC)c2CC1 (single isomer, unassigned) [Example 693] | – | – | – | – | IC50 [1, 5]: < 100 nM; IC50 [2, 6]: > 10000 nM |
| CCN1CCCOc2cc(Nc3ncc(Cl)c(Nc4ccsc4C(=O)NC)n3)ccc21 [Example 1409, 3-[5-Chloro-2-(9-ethyl-6,7,8,9-tetrahydro-5-oxa-9-aza-benzocyclohepten-3-ylamino)-pyrimidin-4-ylamino]-thiophene-2-carboxylic acid methyl amide] | – | – | 100 to 1000 nM | 100 to 1000 nM | – |
| CNC(=O)c1ccccc1Nc1nc(Nc2ccc3c(c2Cl)C2CCC(C3)N2CCOC)ncc1Cl (centres unmarked) [Example 87, 2-{5-Chloro-2-[3-chloro-12-(2-methoxy-ethyl)-12-aza-tricyclo[7.2.1.0*2,7*]dodeca-2(7),3,5-trien-4-ylamino]-pyrimidin-4-ylamino}-N-methyl-benzamide] | < 100 nM | 100 to 1000 nM | – | – | – |
| CCN1CCc2ccc(Nc3ncc(Cl)c(Nc4cccc(N5CCOCC5)c4)n3)cc2CC1 [Example 444, 5-Chloro-N*2*-(3-ethyl-2,3,4,5-tetrahydro-1H-benzo[d]azepin-7-yl)-N*4*-(3-morpholin-4-yl-phenyl)-pyrimidine-2,4-diamine] | < 100 nM | 1000 to 10000 nM | – | – | – |
| COc1cc2c(cc1Nc1ncc(Cl)c(Nc3ccccc3S(=O)(=O)N(C)C)n1)CCNC(=O)C2 [Example 1194, 2-[5-Chloro-2-(8-methoxy-2-oxo-2,3,4,5-tetrahydro-1H-benzo[d]azepin-7-ylamino)-pyrimidin-4-ylamino]-N,N-dimethyl-benzenesulfonamide] | – | – | < 100 nM | 1000 to 10000 nM | – |
| CNC(=O)c1ccc(Nc2nc(Nc3cc4c(cc3OC)CCN(Cc3ncco3)CC4)ncc2Cl)c(OC)c1 [Example 1182, 4-[5-Chloro-2-(8-methoxy-3-oxazol-2-ylmethyl-2,3,4,5-tetrahydro-1H-benzo[d]azepin-7-ylamino)-pyrimidin-4-ylamino]-3-methoxy-N-methyl-benzamide] | – | – | < 100 nM | > 10000 nM | – |
| CCN1C(=O)CCCc2c(OC)ccc(Nc3ncc(Cl)c(Nc4ccc(N5CCOCC5)cc4OC)n3)c21 [Example 125, 9-[5-Chloro-4-(2-methoxy-4-morpholin-4-yl-phenylamino)-pyrimidin-2-ylamino]-1-ethyl-6-methoxy-1,3,4,5-tetrahydro-benzo[b]azepin-2-one] | < 100 nM | > 10000 nM | – | – | – |
| CNS(=O)(=O)c1ccccc1Nc1nc(Nc2ccc3c(c2)C2CCC3CN(CC#N)C2)ncc1Cl (centres unmarked) [Example 275, 2-[5-Chloro-2-(10-cyanomethyl-10-aza-tricyclo[6.3.2.0*2,7*]trideca-2,4,6-trien-4-ylamino)-pyrimidin-4-ylamino]-N-methyl-benzenesulfonamide] | < 100 nM | < 100 nM | – | – | – |
| CNC(=O)c1cc(OC)ccc1Nc1nc(Nc2cc3c(cc2OC)CCN(CCOC)CC3)ncc1Cl [Example 621, 2-{5-Chloro-2-[8-methoxy-3-(2-methoxy-ethyl)-2,3,4,5-tetrahydro-1H-benzo[d]azepin-7-ylamino]-pyrimidin-4-ylamino}-5-methoxy-N-methyl-benzamide] | – | – | – | – | IC50 [1, 5]: < 100 nM; IC50 [2, 6]: 1000 to 10000 nM |
| COc1cc2c(cc1Nc1ncc(Cl)c(N[C@@H]3CCCC[C@H]3NS(C)(=O)=O)n1)CCC(NCC(F)F)CC2 (single isomer, unassigned) [Example 1057] | – | – | < 100 nM | > 10000 nM | – |
| CCN1CCc2ccc(Nc3ncc(Cl)c(N[C@@H]4CCCC[C@H]4NC(=O)N(C)C)n3)cc2CC1 [Example 447, 3-{(1R,2R)-2-[5-Chloro-2-(3-ethyl-2,3,4,5-tetrahydro-1H-benzo[d]azepin-7-ylamino)-pyrimidin-4-ylamino]-cyclohexyl}-1,1-dimethyl-urea] | 100 to 1000 nM | 100 to 1000 nM | – | – | – |
| CCN1C(=O)CCCc2c1ccc(Nc1ncc(Cl)c(N[C@@H]3CCCC[C@H]3N(C)S(C)(=O)=O)n1)c2OC [Example 1679, N-{(1R,2R)-2-[5-Chloro-2-(1-ethyl-6-methoxy-2-oxo-2,3,4,5-tetrahydro-1H-benzo[b]azepin-7-ylamino)-pyrimidin-4-ylamino]-cyclohexyl}-N-methyl-methanesulfonamide] | – | – | – | – | IC50 [1, 9]: 100 to 1000 nM; IC50 [2, 10]: > 10000 nM |
| CCCNC(=O)c1ccc(Nc2nc(Nc3ccc4c(c3)CCC(N3CCOCC3)CC4)ncc2Cl)c(OC)c1 (centres unmarked) [Example 929, 4-[5-Chloro-2-(7-morpholin-4-yl-6,7,8,9-tetrahydro-5H-benzocyclohepten-2-ylamino)-pyrimidin-4-ylamino]-3-methoxy-N-propyl-benzamide] | – | – | – | – | IC50 [1, 5]: < 100 nM; IC50 [2, 6]: > 10000 nM |
